Measurements reported in patent US20060079453A1, “Hla binding peptides and their uses” (priority 2002, published 2006).
No end group written: not given here.

What was measured:
Assay in all cases: biochemical
[1] = biological target: HLA-B*0702 (Homo sapiens, UniProt P01889); type: binding; conditions: B*0702 binding affinity (IC50)
[2] = biological target: HLA-B*3501 (Homo sapiens, UniProt P01889, A329T/A93T/A95T/C349S/D201E/D98Y/E176V/E187L/E204Q/E69T/I218V/K202T/L119I/Q94N/R155S/R180L/S121R/S35A/S48A/T118I/V127L/V306I/V36M/Y140S/Y91F); conditions: B*3501 binding affinity (IC50)
[3] = biological target: HLA-B*5401 (Homo sapiens, UniProt P01889, A329T/C349S/D138N/D201E/E176V/E187T/E204Q/E69G/I76V/K202T/L119W/R155S/R180L/S121T/S35A/S48A/V127L/V306I/V36M/Y140L); type: binding; conditions: B*5401 binding affinity (IC50)
[4] = biological target: HLA-B*5301 (Homo sapiens, UniProt P01889, A329T/A93T/A95T/C349S/D201E/D98Y/E176V/E187L/E204Q/E69T/G107R/I218V/K202T/L105A/L119I/N104I/Q94N/R106L/R155S/R180L/S101N/S121R/S35A/S48A/T118I/V127L/V306I/V36M/Y140S/Y91F); type: binding; conditions: B*5301 binding affinity (IC50)
[5] = biological target: HLA-B*5101 (Homo sapiens, UniProt P01889, A329T/A93T/A95T/C349S/D138N/D201E/D98Y/E187L/E204Q/E69T/G107R/I218V/K202T/L105A/L119W/N104I/Q94N/R106L/R155S/R180L/S101N/S121T/S35A/S48A/V306I/V36M/Y195H/Y91F); conditions: B*5101 binding affinity (IC50)
[6] = biological target: H-2Ld (Mus musculus, UniProt P01897); type: binding, murine; conditions: Ld
Chain of H-2Ld (P01897 25-362): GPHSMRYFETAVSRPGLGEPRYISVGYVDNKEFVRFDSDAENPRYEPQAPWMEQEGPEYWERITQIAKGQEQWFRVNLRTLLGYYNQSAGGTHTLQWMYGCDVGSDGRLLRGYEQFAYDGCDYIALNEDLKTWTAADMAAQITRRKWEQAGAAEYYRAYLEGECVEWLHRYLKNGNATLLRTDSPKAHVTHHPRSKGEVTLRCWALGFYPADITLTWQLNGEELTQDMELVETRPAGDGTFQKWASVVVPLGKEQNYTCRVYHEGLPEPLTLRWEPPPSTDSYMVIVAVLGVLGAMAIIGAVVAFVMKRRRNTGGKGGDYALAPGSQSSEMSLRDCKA
Chain of H-2Ld (P61769 21-119, further chain): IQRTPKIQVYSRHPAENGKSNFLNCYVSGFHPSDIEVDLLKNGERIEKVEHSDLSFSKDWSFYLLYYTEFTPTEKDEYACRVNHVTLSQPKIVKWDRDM

[7] = biological target: H-2Kk (Mus musculus, UniProt P04223); type: binding, murine
Chain of H-2Kk (P04223 22-369): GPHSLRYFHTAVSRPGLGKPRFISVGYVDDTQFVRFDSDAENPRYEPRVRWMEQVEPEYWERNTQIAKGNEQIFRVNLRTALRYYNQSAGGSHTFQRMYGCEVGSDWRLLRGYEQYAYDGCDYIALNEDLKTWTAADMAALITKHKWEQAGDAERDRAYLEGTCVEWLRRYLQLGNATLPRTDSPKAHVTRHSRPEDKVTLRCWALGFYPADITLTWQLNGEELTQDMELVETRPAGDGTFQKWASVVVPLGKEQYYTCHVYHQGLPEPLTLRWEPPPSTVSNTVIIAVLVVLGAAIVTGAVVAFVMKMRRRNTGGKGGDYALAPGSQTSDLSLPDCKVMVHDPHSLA
Chain of H-2Kk (P61769 21-119, further chain): as the sequence (P61769 21-119, further chain) above

[8] = biological target: HLA-B*1801 (Homo sapiens, UniProt P01889, A329T/A93T/A95T/C349S/D201E/D54G/D98Y/E176V/E187T/E204Q/E69T/K202T/Q94N/R155S/R180L/S121R/V306I/Y140S/Y195H/Y33H/Y91S); type: binding; conditions: B*1801
[9] = biological target: HLA-B*4402 (Homo sapiens, UniProt P01889, A223V/A65T/A93T/A95T/D201E/D98Y/E176V/E187L/E204Q/E69K/G107R/H137Y/K202T/L105A/L119I/N104T/N87E/Q56L/Q94N/R106L/R155S/R180D/S101N/S121R/S35A/S48T/T118I/V36M/W191S/Y140D/Y91S); type: binding; conditions: B*4402
[10] = biological target: HLA-B*4002 (Homo sapiens, UniProt P01889, A65T/A93T/A95T/D138N/D201E/D98Y/E176V/E204Q/E69K/K202T/N87E/Q56L/Q94N/R180L/S48T/Y33H/Y91S); type: binding; conditions: B*4002
[11] = biological target: HLA-B*4501 (Homo sapiens, UniProt P01889, A329T/A65T/A93T/A95T/C349S/D138N/D201E/D98Y/E176V/E187L/E204Q/E69K/H137Y/K202T/L119W/N87E/Q56L/Q94N/R155S/R180D/S121R/S35A/S48T/V127L/V306I/V36M/W191S/Y140L/Y33H/Y91S); type: binding; conditions: B*4501
[12] = biological target: HLA-DQ DQA1*0301/B*0302 (DQ8) (Homo sapiens, UniProt P01909+P01920, A209T/A45G/C70Q/D89A/DUP78-78/E183D/E77G/F237L/G63E/H199R/I129T/K197E/L178F/L74F/L98V/Q57E/Q76R/S185I/S97I/T217I/T49S/V73L/Y58L)
[13] = biological target: H-2 Db (Mus musculus, UniProt P01899); type: binding, murine; conditions: Db
Chain of H-2 Db (P61769 21-119): as the sequence (P61769 21-119, further chain) above
Chain of H-2 Db (P01899 25-362): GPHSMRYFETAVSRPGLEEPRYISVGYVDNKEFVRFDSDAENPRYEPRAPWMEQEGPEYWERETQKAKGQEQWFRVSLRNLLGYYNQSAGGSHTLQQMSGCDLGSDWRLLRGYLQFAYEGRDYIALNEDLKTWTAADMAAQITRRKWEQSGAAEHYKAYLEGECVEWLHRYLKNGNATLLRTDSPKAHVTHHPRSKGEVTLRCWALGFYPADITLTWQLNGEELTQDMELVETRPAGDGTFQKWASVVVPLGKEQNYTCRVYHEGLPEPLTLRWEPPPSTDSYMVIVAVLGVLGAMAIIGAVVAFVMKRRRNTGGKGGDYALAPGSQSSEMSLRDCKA

Compound	IC50 [1]	IC50 [2]	IC50 [3]	IC50 [4]	IC50 [5]	IC50 [6]	other results
CC(C)C[C@H](NC(=O)[C@H](Cc1c[nH]cn1)NC(=O)[C@H](CCCNC(=N)N)NC(=O)[C@H](CCC(N)=O)NC(=O)[C@H](CCCCN)NC(=O)[C@H](CCC(=O)O)NC(=O)[C@H](CCC(=O)O)NC(=O)[C@@H]1CCCN1C(=O)[C@@H](N)CS)C(=O)O	10 nM	> 52600 nM	> 76900 nM	> 109000 nM	> 35500 nM		
CC(C)C[C@H](NC(=O)[C@@H]1CCCN1C(=O)[C@@H](NC(=O)[C@H](CCC(N)=O)NC(=O)[C@@H]1CCCN1C(=O)[C@H](CCCNC(=N)N)NC(=O)[C@@H](NC(=O)[C@@H]1CCCN1C(=O)[C@@H](N)Cc1ccccc1)C(C)C)C(C)C)C(=O)O	17 nM	3.8 nM	21 nM	49 nM	18 nM		
CSCC[C@H](NC(=O)[C@@H](NC(=O)[C@H](C)NC(=O)[C@H](Cc1ccccc1)NC(=O)[C@H](CC(N)=O)NC(=O)[C@H](Cc1ccc(O)cc1)NC(=O)[C@@H](NC(=O)[C@H](C)NC(=O)[C@@H](N)CCCCN)C(C)C)[C@@H](C)O)C(=O)O						> 27000 nM	
N=C(N)NCCC[C@H](NC(=O)[C@H](CCC(N)=O)NC(=O)[C@@H]1CCCN1C(=O)[C@@H](N)CCC(N)=O)C(=O)NCC(=O)N[C@@H](Cc1ccc(O)cc1)C(=O)N[C@@H](CCC(=O)O)C(=O)N[C@@H](CC(N)=O)C(=O)N[C@@H](Cc1ccccc1)C(=O)O						319 nM	
CC(C)C[C@H](NC(=O)[C@H](C)NC(=O)[C@@H](NC(=O)[C@H](CC(C)C)NC(=O)[C@H](C)NC(=O)[C@@H](NC(=O)[C@@H](NC(=O)[C@H](CCCNC(=N)N)NC(=O)[C@@H]1CCCN1C(=O)[C@H](C)N)[C@@H](C)O)C(C)C)[C@@H](C)O)C(=O)O [APRTVALTAL]	12 nM	4350 nM	16800 nM	61600 nM	14600 nM		
APCNFFTSA	43 nM	8090 nM	0.61 nM	> 22400 nM			
CPTVQASKL	3250 nM	645 nM	21600 nM	1860 nM	448 nM		
EEKHEKKHV							IC50 [7]: 284 nM
FPGPGPGPL	1580 nM	426 nM	29900 nM	21000 nM	2330 nM		
FPLTFGWCFKI	52600 nM	4990 nM		188 nM	590 nM		
FPLTFGWCI	48000 nM	164 nM	14 nM	36 nM	63 nM		
FPVGPGPGL		14 nM	246 nM	32 nM	138 nM		
HETTYNSI							IC50 [7]: 1.8 nM; IC50 [8]: 1640 nM; IC50 [9]: 616 nM; IC50 [10]: 336 nM; IC50 [11]: 6610 nM
IDVWLGGLKENFLPY							IC50 [12]: > 2800 nM
IPQSLDSWTSL						0.22 nM	
KAVANFATM						27000 nM	IC50 [13]: 1.2 nM
KAVYNAATM						> 27000 nM	IC50 [13]: 2 nM
KAVYNFAAM						27000 nM	IC50 [13]: 4.4 nM
KAVYNYATM						> 27000 nM	IC50 [13]: 2.1 nM
LPPLERLTI	24400 nM	13400 nM	11200 nM	2620 nM	359 nM		
NEEPSDKHI							IC50 [7]: 40 nM
